Measurements taken from US9987336B2, “Attenuating or treating sepsis or septic shock” (Rutgers, the State University of New Jersey, priority 2012, dated 2018).
Entries after “also recorded” stand apart in the source; their conditions may differ.

Assays:
[1] = test system: adenosine receptors; settings: CD73 KO mice made septic by CLP; compared with wild-type mice; cited from earlier work
[2] = test system: C57BL/6J mice made septic by cecal ligation and puncture (CLP); test: Survival after sepsis induced by cecal ligation and puncture (CLP); assay type: in vivo, mouse; settings: murine model of septic shock induced by cecal ligation and puncture
Procedure: In this analysis, CD39 KO mice, mice administered a CD39 blocker (sodium polyoxotungstate) or mice administered an apyrase (potato apyrase) were made septic by cecal ligation and puncture (CLP) and survival after CLP was recorded for 7 days. In addition, the immune status of the mice was assessed by measuring cytokine levels from blood and peritoneal lavage fluid. […] Thus, ectonucleotidase manipulation is therapeutically useful for the treatment of septic shock.
(§1) CD39 knockout (KO) mice and their wild-type littermates were developed according to established methods and were backcrossed 6-8 times to a C57BL/6J background (Enjyoji, et al. (1999) Nat. Med. 5(9):1010-7). Wild-type and KO littermates were used in this analysis. In some experiments, mice were treated with sodium polyoxotungstate (POM-1, Na6[H2W12O40], 3 mg/kg/h, […], prior to CLP) or apyrase from potatoes (Sigma, 5 U apyrase i.p., prior to CLP).
(§2) Polymicrobial sepsis was induced by subjecting C57BL/6J mice to CLP in accordance with established methods (Németh, et al. (2006) supra; Gallos, et al. (2005) supra; Lee, et al. (2006) supra; Csóka, et al. (2010) supra). After the operation, all mice were resuscitated with 1 ml physiological saline injected s.c. and returned to their cages with free access to food and water.

[3] = test system: TNF-α; test: TNF-α level after CLP (ELISA); assay type: in vivo, mouse; settings: C57BL/6J mice, 16 hours post-CLP, vs. vehicle
Procedure: as §1, §2
(§3) Sixteen hours after the CLP operation (the following day), the mice were reanesthetized with pentobarbital (50 mg/kg i.p.), and blood and peritoneal lavage fluid were harvested. Specifically, after opening the chest of mice, blood samples were obtained aseptically by cardiac puncture using heparinized syringes. […]
(§4) Concentrations of TNF-α and MIP-2 were determined in blood and peritoneal lavage fluid obtained 16 hours after CLP using commercially available ELISA kits (R&D Systems, Minneapolis, Minn.) according to the manufacturer's instructions.

[4] = test system: MIP-2; test: MIP-2 level after CLP (ELISA); assay type: in vivo, mouse; settings: C57BL/6J mice, 16 hours post-CLP, vs. vehicle
Procedure: as §1, §2, §3, §4

In the case of CCNC(=O)[C@H]1O[C@@H](n2cnc3c(N)ncnc32)[C@H](O)[C@@H]1O [NECA, 5′-(N-ethylcarboxamido)adenosine], the inflammatory cytokine levels [1] is listed as “completely reversed the increased cytokine levels”.
With apyrase the organ dysfunction [2] was “prevents organ dysfunction”, the TNF-α levels [3] was “decreases plasma cytokine levels; also recorded: decreased the levels” and the MIP-2 levels [4] was “decreases plasma cytokine levels; also recorded: decreased the levels”.
With “sodium polyoxotungstate [reference compound]” the TNF-α levels [3] was “increased the levels” and the MIP-2 levels [4] was “increased the levels”.
